Experimental data reported in PMC6066355, “Probing the binding site of novel selective positive allosteric modulators at the M1 muscarinic acetylcholine receptor” (Biochemical Pharmacology, 2018).
Where a chain is given by its changes, count along the chain named. Read-outs that look alike come from different tables or passages of the source.

Tests used:
[1] = target: T1, Y179^ECL2A M1 mAChR (Homo sapiens, UniProt P11229, Y179A); test: IP-One (IP1) accumulation assay, FlpIn CHO cells; assay type: cell-based
T1 construct: expressed in transfected cells
T1 sequence (P11229 1-460 Y179A): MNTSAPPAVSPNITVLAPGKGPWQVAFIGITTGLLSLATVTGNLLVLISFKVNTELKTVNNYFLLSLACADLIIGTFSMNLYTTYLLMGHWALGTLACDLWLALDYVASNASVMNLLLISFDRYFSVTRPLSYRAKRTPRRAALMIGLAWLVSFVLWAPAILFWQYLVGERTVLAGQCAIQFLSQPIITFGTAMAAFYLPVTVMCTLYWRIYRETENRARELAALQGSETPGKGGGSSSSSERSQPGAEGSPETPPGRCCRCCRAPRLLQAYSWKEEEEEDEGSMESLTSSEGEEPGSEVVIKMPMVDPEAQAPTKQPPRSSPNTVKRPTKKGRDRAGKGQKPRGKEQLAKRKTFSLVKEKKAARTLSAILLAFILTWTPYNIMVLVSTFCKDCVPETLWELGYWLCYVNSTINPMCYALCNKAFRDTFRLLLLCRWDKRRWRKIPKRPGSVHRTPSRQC
Method: (§1) The IP-One assay kit (Cisbio) was used for the direct quantitative measurement of myo-Inositol 1 phosphate (IP1). Cells were seeded at 25,000 per well into 96-well transparent cell culture plates and incubated overnight at 37 °C. […] Cells were then lysed with IP1 lysis buffer (50 mM HEPES pH 7.0, 15 mM KF, 1.5% V/V Triton-X-100, 3% V/V FBS, 0.2% W/V BSA), and IP1 levels were measured by incubation of cell lysates with FRET reagents (the cryptate-labeled anti-IP1 antibody and the d2-labeled IP1 analogue) for 1 h at 37 °C. […] Signals were expressed as the FRET ratio: F = (fluorescence665 nm/fluorescence590 nm) × 10^4, and normalized to the response to maximal ACh concentration (100 µM).
(§2) (Eq. (2)) was used:(2) Y=Basal+Em-Basal/1+KA+A/τA where Em is the maximal possible system response and Basal is the response in the absence of agonist. [A] denotes the concentration of ligand, and KA represents its equilibrium dissociation constants. τ denotes the intrinsic efficacy of the ligand, which incorporates the total receptor density and the efficiency of stimulus-response coupling.
(§3) Functional interaction studies between orthosteric agonists and allosteric modulators in IP1 assays were analysed using the following operational model of allosterism and agonism (Eq. (3)):(3) E=Basal+Em-BasalAKB+αβB+τBBEC50/EC50KB+B+AKB+αβB+τBBEC50 where Em is the maximal possible system response, and Basal is the response in the absence of agonist. KB is the equilibrium dissociation constant of allosteric ligand, and EC50 is the concentration of orthosteric agonist required to achieve half maximal response. [A] and [B] denote concentrations of orthosteric and allosteric ligands, respectively. α and β denote allosteric effects on orthosteric ligand binding affinity and efficacy, respectively, and τB denotes the efficacy of allosteric ligand. This model assumes that ACh is a full agonist at the receptor in both the absence/presence of modulator and/or there is no efficacy modulation (i.e., β = 1).

[2] = target: T2, F77^2.56I M1 mAChR (Homo sapiens, UniProt P11229, F77I); test: Whole cell [3H]NMS binding inhibition/interaction assay (ACh ± PAM), FlpIn CHO cells; conditions: for Logα NMS (logarithm of binding cooperativity between [3H]NMS and modulator): constrained to −2 where preferred model by F-test
T2 construct: expressed in transfected cells
T2 sequence (P11229 1-460 F77I): T1 sequence (P11229 1-460 Y179A) with F77I, A179Y
Method: (§4) Saturation binding assays were performed to estimate the expression levels and equilibrium dissociation constant of the radioligand (KD). FlpIn CHO cells stably expressing the WT or mutant c-myc hM1 mAChRs were plated at the density of 25,000 per well of 96-well white clear bottom Isoplates (PerkinElmer Life Sciences, Boston, MA), and grown overnight at 37 °C. […] Atropine at the final concentration of 100 µM was used to determine non-specific binding. The assays were terminated by rapid removal of the radioligand, and two washes with 100 µl/well ice-cold 0.9% NaCl buffer.
(§5) All data were analysed using GraphPad Prism 7 (San Diego, CA). […] Binding interaction studies between orthosteric agonists and allosteric modulators were fitted to the following allosteric ternary complex model (Eq. (1)):(1) Y=BmaxD/D+KDKB/α^′B+KB1+I/KI+B/KB+αIB/KIKB where Bmax is the total number of receptors, [D], [B] and [I] denote the concentrations of radioligand, allosteric ligand, and orthosteric ligand, respectively, and KD, KB and KI represent their respective equilibrium dissociation constants. α′ and α are the cooperativity factors between the allosteric ligand and radioligand or orthosteric ligand, respectively.

[3] = target: T1, Y179^ECL2A M1 mAChR; test: as above; conditions: affinity and cooperativity could not be estimated
Method: as §4, §5

[4] = target: T3, WT M1 mAChR (Homo sapiens, UniProt P11229); test: as above; conditions: for Logα NMS (logarithm of binding cooperativity between [3H]NMS and modulator): constrained to −2 where preferred model by F-test
T3 construct: expressed in transfected cells
T3 sequence (P11229 1-460): T1 sequence (P11229 1-460 Y179A) with A179Y
Method: as §4, §5

[5] = target: T3, WT M1 mAChR; test: IP-One (IP1) accumulation assay, CHO-hM1 cells; assay type: cell-based; conditions: for αβ (functional cooperativity with ACh, antilog in brackets) / Logαβ (logarithm of functional cooperativity between ACh and modulator): non-alkylated; for Logαβ (logarithm of functional cooperativity between ACh and modulator): pKB constrained to Table 1, β constrained to 1
Method: as §1, §2, §3

Row | Structure (SMILES) | Modulation of ACh-stimulated IP1 accumulation [1] | Kb [2] | Logα ACh (logarithm of binding cooperativity between ACh and modulator) ([2]; F77^2.56I) | α ACh (binding cooperativity with ACh, antilog in brackets) ([2]; F77^2.56I) | Logα NMS (logarithm of binding cooperativity between [3H]NMS and modulator) ([2]; F77^2.56I) | Modulatory effect on ACh inhibition of [3H]NMS binding [3] | Kb [4] | Logα ACh (logarithm of binding cooperativity between ACh and modulator) ([4]; WT) | Logα NMS (logarithm of binding cooperativity between [3H]NMS and modulator) ([4]; WT) | LogτB (logarithm of functional efficacy of the modulator) [5] | τB (functional efficacy of the modulator, antilog in brackets) [5] | αβ (functional cooperativity with ACh, antilog in brackets) [5] | Logαβ (logarithm of functional cooperativity between ACh and modulator) [5] | α ACh (binding cooperativity with ACh, antilog in brackets) ([4]; WT) | α NMS (binding cooperativity with [3H]NMS, antilog in brackets) ([2]; F77^2.56I) | Kb ([2]; F77^2.56I, allosteric ternary complex model, 0.3 nM [3H]NMS, read-out: pKB (negative logarithm of the allosteric modulator equilibrium dissociation constant) (converted)) | Kb ([4]; WT, allosteric ternary complex model, 0.3 nM [3H]NMS, read-out: pKB (negative logarithm of the allosteric modulator equilibrium dissociation constant) (converted))
1 | Cn1cc(-c2ccc(COc3ccccc3-c3cc(=O)n(C4CCCCC4O)cn3)cc2)cn1 (stereo not drawn) [MIPS1780, 3-(2-hydroxycyclohexyl)-6-(2-((4-(1-methyl-1H-pyrazol-4-yl)-benzyl)oxy)phenyl)pyrimidin-4(3H)-one] | abolished | 661 nM | 1.60 ± 0.09 | 25.7 | = −2 | completely abolished | 661 nM | 1.60 ± 0.08 | = −2 | 1.00 ± 0.05 | 10 | 59 | 1.77 ± 0.14 | – | – | – | –
2 | Cn1cc(-c2ccc(Cn3cc(C(=O)N[C@H]4CCCC[C@@H]4O)c4c(F)cc(F)cc43)cn2)cn1 [VU6004256, 4,6-difluoro-N-(1S,2S)-2-hydroxycyclohexyl-1-((6-(1-methyl-1H-pyrazol-4-yl)pyridine-3-yl)methyl)-1H-indole-3-carboxamide] | abolished | 417 nM | – | – | = −2 | completely abolished | 479 nM | 1.40 ± 0.09 | = −2 | 1.24 ± 0.05 | 17 | 60 | 1.78 ± 0.18 | 15.5 | – | – | –
3 | Cc1cnc(C(=O)N[C@H]2CCOC[C@@H]2O)cc1Cc1ccc(-c2cscn2)cc1 [PF-06767832, N-((3R,4S)-3-hydroxytetrahydro-2H-pyran-4-yl)-5-methyl-4-(4-(thiazol-4-yl)benzyl)pyridine-2-carboxamide] | abolished | – | 1.83 ± 0.14 | 44.7 | −1.02 ± 0.12 | completely abolished | – | 1.40 ± 0.08 | −1.05 ± 0.06 | 1.01 ± 0.03 | 10 | 83 | 1.92 ± 0.11 | – | 0.06 | 417 nM | 309 nM
